“Also recorded” adds a separate entry of the source.
What was measured:
peptide-pulsed C1R-A11 [1] = test: In vitro CTL induction, IFN-gamma ELISPOT assay (HLA-A*1101); type: cell-based, human; conditions: CTLs induced with peptide-pulsed DCs from HLA-A*1101-positive volunteers; day 21; vs peptide-pulsed C1R-A11, compared with unpulsed control
Method: (§1) C1R (C1R-A11) that stably expresses HLA-A*1101 was used as a stimulator cell. A cDNA encoding the open-reading frame of HLA-A*1101 was amplified by PCR and cloned into an expression vector. C1R cells were transfected with the expression vector, and then selected using G418 (Invitrogen) for two weeks. The G418-selected cells were seeded into wells containing G418-added culture medium in a 96-well plate, and further cultured for 30 days. The exogenous HLA-A*1101 expression in C1R cells was verified by flow cytometric analysis.
(§2) Monocyte-derived dendritic cells (DCs) were used as the antigen-presenting cell to induce a cytotoxic T lymphocyte (CTL) response against peptides presented on human leukocyte antigens (HLAs). As described in the other sections, DCs were generated in vitro (Nakahara S et al., Cancer Res 2003, 63(14): 4112-8). Specifically, peripheral-blood mononuclear cells isolated from healthy volunteers (HLA-A*1101-positive) with the Ficoll-Paque plus solution (Pharmacia) were separated by attaching to plastic tissue culture dishes (Becton Dickinson) and concentrated as a monocyte fraction. The monocyte-concentrated population was cultured in the presence of 1000 IU/ml granulocyte macrophage colony-stimulating factor (R&D System) and 1000 IU/ml interleukin(IL)-4 (R&D System) in an AIM-V medium (Invitrogen) containing 2% heat-inactivated autologous serum (AS). After seven days of culturing, the cytokine-induced DCs were pulsed with 20 micro-g/ml each of the synthesized peptides in an AIM-V medium at 37 degrees C. for three hours in the presence of 3 micro-g/ml beta 2-microglobulin. The generated cells appeared to express on their cell surface DC-associated molecules such as CD80, CD83, CD86 and HLA class II (data not shown). Next, these peptide-pulsed DCs were inactivated, by X-ray irradiation (20 Gy), and mixed in a 1:20 ratio with autologous CD8^+ T cells obtained by positive selection using the CD8 Positive Isolation Kit (Dynal). These culture products were seeded in a 48-well plate (Corning). Each well was made to contain 1.5×10^4 peptide-pulsed DCs, 3×10^5 CD8^+ T cells and 10 ng/ml IL-7 (R&D System) in 0.5 ml of the AIM-V/2% AS medium. Three days later, these culture products were added with a final concentration of 20 IU/ml IL-2 (CHIRON). On day 7 and day 14, T cells were further stimulated with peptide-pulsed autologous DCs. The DCs were prepared every time by the same method as above. On day 21, after the third peptide stimulation, CTLs were examined against the peptide-pulsed C1R-A11 by a human interferon (IFN)-gamma enzyme-linked immunospot (ELISPOT) assay (Tanaka H et al., Br J Cancer 2001, 84(1): 94-9; Umano Y et al., Br J Cancer 2001, 84(8): 1052-7; Uchida N et al., Clin Cancer Res 2004, 10(24): 8577-86; Suda T et al., Cancer Sci 2006, 97(5): 411-9; Watanabe T et al., Cancer Sci 2005, 96(8): 498-506).
(§3) Specifically, peptide-pulsed C1R-A11 (1×10^4 cells/well) was prepared as the stimulator cell. The induced CTLs, i.e., CTL lines and CTL clones, were used as the responder cell. The IFN-gamma ELISPOT assay and IFN-gamma ELISA were performed according to the manufacturer's manual.

[2] = system: COS7 cells transfected with both KOC1 and HLA-A*1101; test: Specific CTL activity against target cells expressing KOC1 and HLA-A*1101; type: cell-based, African green monkey; conditions: listed as KOC1-A11-10-14
Method: as §3
A cDNA encoding the open-reading frame of a target gene or HLA-A*1101 was amplified by PCR. The PCR-amplified product was cloned into an expression vector. Either or both of the target gene-expressing vector and the HLA-A*1101-expressing vector were transfected into […], which is a cell line negative for the target gene and HLA, using Lipofectamine 2000 (Invitrogen) following the manufacturer's recommended protocol. Two days after transfection, the transfected cells were harvested using versene (Invitrogen), and used as the target cell for CTL activity assay (5×10^4 cells/well).
The CTL clone established against KOC1-A11-10-14 (SEQ ID NO: 32) was investigated for its ability to recognize target cells expressing KOC1 and the HLA-A*1101 molecule. COS7 cells transfected with both full-length KOC1 and the HLA-A*1101 gene (a specific model of target cells expressing KOC1 and the HLA-A*1101 gene) were prepared as the target cell. COS7 cells transfected with either full-length KOC1 or HLA-A*1101 were prepared as the control.

peptide-pulsed C1R-A11 [3] = test: IFN-gamma ELISA of CTL lines and CTL clones (HLA-A*1101); type: cell-based, human
Method: (§4) CTLs were propagated in culture using methods similar to those disclosed by Riddell et al. (Walter E A et al., N Engl J Med 1995, 333(16): 1038-44; Riddell S R et al., Nat Med 1996, 2(2): 216-23). The CTLs were co-cultured in a total of 25 ml AIM-V medium containing 5% AS (AIM-V/5% AS) and 40 ng/ml anti-CD3 antibody with two types of Mitomycin C-treated human B lymphoblastoid cell lines at 5×10^6 cells/flask. One day after beginning of the culturing, 120 IU/ml IL-2 was added to the culture. On days 5, 8 and 11, a fresh AIM-V/5% AS medium containing 30 IU/ml IL-2 was added to the culture (Tanaka H et al., Br J Cancer 2001, 84(1): 94-9; Umano Y et al., Br J Cancer 2001, 84(8): 1052-7; Uchida N et al., Clin Cancer Res 2004, 10(24): 8577-86; Suda T et al., Cancer Sci 2006, 97(5): 411-9; Watanabe T et al., Cancer Sci 2005, 96(8): 498-506).
Dilution of CTLs was carried out to make 0.3, 1 and 3 cells/well in 96 round-bottomed microtiter plates (Nalge Nunc International). The CTLs were co-cultured with two types of Mitomycin C-treated human B lymphoblastoid cell lines at 1×10^4 cells/well in a total of 150 micro-1/well AIM-V/5% AS medium with 30 ng/ml anti-CD3 antibody and 125 IU/ml IL-2. Ten days later, IL-2 was added to the medium at 50 micro-1/well to reach a final concentration of 125 IU/ml. On day 14, the CTL activity was tested, and the CTL clones were propagated using the same method as described above (Uchida N et al., Clin Cancer Res 2004, 10(24): 8577-86; Suda T et al., Cancer Sci 2006, 97(5): 411-9; Watanabe T et al., Cancer Sci 2005, 96(8): 498-506).
as §3

peptide-pulsed C1R-A01 [4] = test: IFN-gamma ELISA of CTL lines and CTL clone (HLA-A*0101); type: cell-based, human; conditions: CTL lines; target cells pulsed with the peptide vs not pulsed; C1R-A01
Method: as §4, with “AS” for “AS (AIM-V/5% AS)”, “cells.” for “cells/flask.”
CTLs were seeded to make 1 or 10 cells/well in 96 round-bottomed microtiter plates (Nalge Nunc International). The CTLs were co-cultured with two types of Mitomycin C-treated human B lymphoblastoid cell lines at 1×10^4 cells in a total of 150 micro-1/well 5% AS-containing AIM-V medium with 30 ng/ml anti-CD3 antibody and 125 IU/ml IL-2. Ten days later, 50 micro-1 of IL-2 was added to the medium to reach a final IL-2 concentration of 125 IU/ml. On day 14, the CTL activity was tested, and the CTL clones were propagated using the same method as described above (Uchida N et al., Clin Cancer Res 2004, 10(24): 8577-86; Suda T et al., Cancer Sci 2006, 97(5): 411-9; Watanabe T et al., Cancer Sci 2005, 96(8): 498-506).
(§5) Specifically, peptide-pulsed C1R-A01 (1×10^4 cells/well) was prepared as the stimulator cell. The induced CTLs, i.e., CTL lines and CTL clones, were used as the responder cell. The IFN-gamma ELISPOT assay and IFN-gamma ELISA were performed according to the manufacturer's manual.

peptide-pulsed C1R-A01 [5] = test: In vitro CTL induction, IFN-gamma ELISPOT assay (HLA-A*0101); type: cell-based, human; conditions: CTLs induced with peptide-pulsed DCs from HLA-A*0101-positive volunteers; day 21; vs peptide-pulsed C1R-A01, compared with unpulsed control
Method: as §1, with “(C1R-A01)” for “(C1R-A11)”, “HLA-A*0101” for “HLA-A*1101”
as §2, with “(HLA-A*0101-positive)” for “(HLA-A*1101-positive)”, “2-microglobulin.” for “2-microglobulin. The generated cells appeared to express on their cell surface DC-associated molecules such as CD80, CD83, CD86 and HLA class II (data not shown).”, “inactivated” for “inactivated,”, “CTL activities” for “CTLs”, “C1R-A01 cells” for “C1R-A11 by a human interferon (IFN)-gamma enzyme-linked immunospot (ELISPOT) assay”
as §5

| Sequence | peptide-specific CTL activity (IFN-gamma production), ELISPOT (peptide-pulsed C1R-A11 [1]) | specific CTL activity of CTL clone against target cells expressing KOC1 and HLA-A*1101 ([2]; COS7 transfected with both full-length KOC1 and HLA-A*1101) | specific CTL activity of CTL clone against control cells ([2]; COS7 transfected with either full-length KOC1 or HLA-A*1101) | IFN-gamma production of CTL clones, ELISA (peptide-pulsed C1R-A11 [3]; CTL clones by limiting dilution, peptide-pulsed C1R-A11, listed as KOC1-A11-10-14) | IFN-gamma production of CTL lines, ELISA (peptide-pulsed C1R-A11 [3]; CTL lines, target cells pulsed with the peptide vs not pulsed, C1R-A11) | IFN-gamma production of CTL lines, ELISA (peptide-pulsed C1R-A01 [4]) | peptide-specific CTL activity (IFN-gamma production), ELISPOT (peptide-pulsed C1R-A01 [5]) |
| --- | --- | --- | --- | --- | --- | --- | --- |
| APSDLESIFK (a peptide derived from KOC1) [SEQ ID NO: 32] | potent IFN-gamma production | specific CTL activity; also recorded: potent CTL activity | a significant specific CTL activity was not shown; also recorded: a significant specific CTL activity was not detected | Potent IFN-gamma production | potent IFN-gamma production |  |  |
| ETAVVNVTY (a peptide derived from KOC1) [SEQ ID NO: 87] |  |  |  |  |  | potent IFN-gamma production | potent IFN-gamma production |

Source: US10576102B2, “KOC1-derived peptide and vaccine including same” (ONCOTHERAPY SCIENCE, INC., priority 2014, dated 2020)
